From PubChem BioAssay AID493250 (Broad Institute, 2011)
Calls of active or inactive are those of the source.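 Rule for the calls: active = signal decrease with fitted half-maximal dose at or below ten times the highest valid tested dose; inconclusive = poor fit, or flat fit at 30 to 70% inhibition; inactive = the rest.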

Target: Zinc finger protein mex-5 (Caenorhabditis elegans) (UniProt Q9XUB2)
Assay: MEX-5 zinc finger-RNA interaction blockers – biochemical, fluorescence polarization, C. elegans, cherry-picked, round 3, dose response (AID 493250)
Settings: purified MEX-5-MBP, FITC-TCR2 RNA fluorescence polarization; for activity change, negative = inhibition: at 10 µM (top of the series)

Sequence of Zinc finger protein mex-5 (Caenorhabditis elegans) (Q9XUB2 whole entry, looked up): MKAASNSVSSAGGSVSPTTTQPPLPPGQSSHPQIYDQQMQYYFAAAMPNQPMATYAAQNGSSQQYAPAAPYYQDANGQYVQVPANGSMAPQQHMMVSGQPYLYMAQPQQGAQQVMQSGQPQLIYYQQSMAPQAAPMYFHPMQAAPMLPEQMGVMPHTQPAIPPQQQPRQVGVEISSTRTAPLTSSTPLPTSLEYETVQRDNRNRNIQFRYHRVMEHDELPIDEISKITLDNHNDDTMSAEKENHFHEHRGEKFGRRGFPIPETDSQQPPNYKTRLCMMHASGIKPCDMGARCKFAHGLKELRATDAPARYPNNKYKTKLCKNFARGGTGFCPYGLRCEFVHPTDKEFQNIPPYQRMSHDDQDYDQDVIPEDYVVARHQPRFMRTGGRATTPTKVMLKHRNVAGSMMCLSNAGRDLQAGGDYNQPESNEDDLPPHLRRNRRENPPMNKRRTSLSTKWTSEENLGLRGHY

SMILES	activity change, negative = inhibition	AC50
Cc1cc(C)c2ccc(C(=O)O)nc2c1O	inactive	
CCS(=O)(=O)c1ccc2oc(=O)c(/C=C(\O)c3ccc(Cl)cc3)nc2c1	inactive	
COc1ccc(NS(=O)(=O)c2cccc(C(=O)NNC(=O)c3cc(S(N)(=O)=O)ccc3OC)c2)cc1		> 10 µM (inactive)
CCC(=O)NCCc1nc2ccccc2n1Cc1ccccc1	inactive	
Cc1ccc(-c2nc(C=Nc3cccc(C)c3)c(O)o2)cc1	inactive	
COc1ccc(Cl)cc1CN1CCN(c2nc(C)cc(C)c2C#N)CC1		9.41 µM
COc1ccc2cc3c(N)c(C(=O)NCc4ccco4)sc3nc2c1	inactive	
COc1cc2c(cc1OC)-c1c(OC)c(OC)cc3c1C(C2)N(C)CC3 (stereo unspecified)	inactive	
CCOC(=O)C1C(=O)C=C(/C=C/c2ccc(N(C)C)cc2)CC1c1ccccc1 (stereo unspecified)		7.41 µM
CCOC(=O)c1cnc2c(N=Nc3ccccc3)c(N)nn2c1N	inactive	
COCCN1CCC(CNCc2cn(-c3cc(C)ccc3C)nc2-c2ccccc2)C1 (stereo unspecified)	inactive	
O=C(O)c1cccc(NC2=C(Cl)C(=O)c3ccccc3C2=O)c1	inactive	
COc1cccc(NC(=S)NNC(=O)C(C)n2nc(C)c([N+](=O)[O-])c2C)c1 (stereo unspecified)	inactive	
Cc1cc(=O)oc(C)c1C(=O)Nc1c(C)n(C)n(-c2ccccc2)c1=O	inactive	
CC(=O)N1CCc2c(sc(NC(=O)C3CCCN3S(=O)(=O)c3cccs3)c2C#N)C1 (stereo unspecified)	inactive	
O=c1[nH]cnc2c1C(c1ccccc1)c1c(nc[nH]c1=O)O2	inactive	
CSCCCN1CCC(n2nccc2NC(=O)CCCc2ccccc2)CC1	inactive	
Cc1cc(=O)n2[nH]c(N)c(N=Nc3ccccc3F)c2n1	inactive	
COc1ccc(C[C@@H]2c3cc(O)c(OC)cc3CCN2C)cc1O	inactive	
OCCCc1nc2n(n1)C(c1ccccc1Cl)C=C(c1cccs1)N2 (stereo unspecified)		10.1 µM
CCCCn1c(N)c(N(Cc2ccccc2OC)C(=O)C(C)C)c(=O)[nH]c1=O	inactive	
Brc1ccc(-c2cn3nc4c(nc3n2)CCCC4)cc1	inactive	

SMILES	activity change, negative = inhibition	AC50
COC(=O)c1ccc(CC(=O)c2ccc(O)cc2O)o1	inactive	
C=CCn1c(=O)[nH]c2nc3cc(N=CN(C)C)c(C)cc3nc2c1=O		5.73 µM
C=CCn1c(O)c(N=NC(=O)CNC(=O)/C=C/c2ccco2)c2ccccc21	inactive	
CN=c1scc(-c2ccco2)n1/N=C/c1ccc(O)c(O)c1	inactive	
COc1cccc(/C=N/NC(=O)N/N=C/c2cccc(OC)c2O)c1O	inactive	
CCN(CC)c1ccc(C(=O)N/N=C(\C)c2cccnc2)cc1	inactive	
O=C1N=C(N2C=CC(=C3C=CNC=C3)C=C2)/C(=C/N=NC(=O)c2ccccc2)S1	inactive	
COC(=O)c1ccccc1N=Nc1c(N)n[nH]c1N	inactive	
CCCC1=NN2C(=N)/C(=C\c3ccc(SCc4ccco4)o3)C(=O)N=C2S1		0.98 µM
Cc1nn(C(C)C(=O)NNC(=S)Nc2ccc(Cl)cc2)c(C)c1[N+](=O)[O-] (stereo unspecified)	inactive	
COCc1cc(C)nc(N/N=C/c2ccc(-c3cc(C(=O)O)ccc3Cl)o2)c1C#N	inactive	
O=C(O)COc1ccc(Br)cc1C(c1c(C(=O)O)[nH]c2ccccc12)c1c(C(=O)O)[nH]c2ccccc12	inactive	
COCCNc1ncnc2nc[nH]c12	inactive	
COc1cccc(CNC23CC4CC(CC(C4)C2)C3)c1OCc1ccccc1	inactive	
O=C1/C(=C\c2ccc(Br)o2)Cc2ccccc21	inactive	
CN(C)CC(O)COc1ccc(C(C)(C)c2ccc(OCC(O)CN(C)C)cc2)cc1 (stereo unspecified)	inactive	
CC1=C(C(=O)OCc2ccccc2)C(c2ccc(N(C)C)cc2)NC(=O)N1 (stereo unspecified)	inactive	
COc1ccc(NC(=S)NNC(=O)C(C)n2nc(C)c([N+](=O)[O-])c2C)cc1 (stereo unspecified)	inactive	
C/C=C(\C)CN1CCC(n2nccc2NC(=O)CCCc2ccccc2)CC1	inactive	
NC(=O)C(=O)N/N=C/c1c2ccccc2cc2ccccc12	inactive	
Cc1cccc(/C=N/NC(=O)Cn2nnnc2N)n1	inactive	
O=C(NC1CCSc2ccccc21)c1cccc(Br)c1 (stereo unspecified)	inactive	

SMILES	activity change, negative = inhibition	AC50
Cc1c(Br)c(=O)oc2c(Br)c(O)c(O)cc12	inactive	
Cc1nc2c3ccccc3nc(NNC(=O)CCC(=O)N3CCC(C)CC3)n2n1	inactive	
COc1cc(/C=C2\CCCc3c2nc2ccccc2c3C(=O)O)cc(OC)c1O	inactive	
COc1cccc(NCc2cc(=O)oc3cc(C)c(O)cc23)c1	inactive	
N=C1C(c2nc3ccccc3[nH]2)=C(O)CN1c1ccccc1	inactive	
O=[N+]([O-])c1ccccc1NC(=S)N/N=C/c1ccc(O)c(O)c1		10.4 µM
Cc1cc2c(C)nc(N/N=C/c3ccc([N+](=O)[O-])cc3)nc2o1		6.83 µM
COc1ccc(NCc2cccnc2)cc1	inactive	
Cc1ccc(NC(=O)CCC(=O)NNC(=S)Nc2ccccc2)c(C)c1	inactive	
CC(=O)Nc1ccc(/C=N\NC(=O)CNS(=O)(=O)c2ccc([N+](=O)[O-])cc2)cc1	inactive	
COc1ccc2nc3ccccc3nc2c1N	inactive	
CC(=O)c1c2c3c(c(Br)ccc3n(C)c1=O)C(=O)c1ccccc1-2	inactive	
COC(=O)C1=COC(C)C2CN3CCc4c([nH]c5ccccc45)C3CC12 (stereo unspecified)		4.21 µM
COc1ccc(OC)c(NC(=O)c2sc3nc(Cc4ccccc4)cc(C(F)(F)F)c3c2N)c1		6.44 µM
O=C(O)CC1S/C(=N/N=C/c2ccc(-c3ccccc3[N+](=O)[O-])o2)NC1=O (stereo unspecified)	inactive	
CCC(=O)N(CC)C1=C(O)c2ccccc2C(=O)C1=O	inactive	
O=[N+]([O-])c1ccc(C2=CSC3=NCCN23)cc1	inactive	
O=C1S/C(=C\c2cccs2)C(=O)N1c1ccc(O)cc1	inactive	
Cc1nc2nc(-c3ccc(Cl)cc3)cn2nc1C		9.89 µM
COc1c(O)ccc(/C=C(\C#N)c2nc3ccccc3[nH]2)c1[N+](=O)[O-]	inactive	
CC1CN(Cc2c(O)ccc3c2oc(=O)c2ccccc23)CC(C)O1 (stereo unspecified)	inactive	
Oc1c(C=Nc2ccccc2)sc(=S)n1Cc1ccccc1	inactive	

SMILES	activity change, negative = inhibition	AC50
CCCc1nc2ccccc2c(=O)n1/N=C/c1ccc(O)c(O)c1	inactive	
N#CCCn1c2ccccc2c2nc3ccccc3nc21	inactive	
Cc1ccc(C(=O)/C=C/c2ccccc2[N+](=O)[O-])cc1	inactive	
CCCCCOP(=O)(OCCCCC)C1(NS(=O)(=O)c2ccccc2)C=CC(=O)c2ccccc21 (stereo unspecified)	inactive	
CC(C)CNC(=O)c1ccccc1Oc1ccccc1	inactive	
CC1=NN(C(N)=S)C(=O)C1N=Nc1cccc(Cl)c1C (stereo unspecified)	inactive	
CCOC(=O)C1Cc2ccccc2C(=O)O1 (stereo unspecified)	inactive	
CN(N)c1ccc2c(C(F)(F)F)cc(C(F)(F)F)nc2n1	inactive	
COc1ccc(OC)c(/C=C/C(=O)Nc2ccc(OC)nc2)c1	inactive	
COCCNc1nnc(SCC(=O)NNC(=O)c2ccc([N+](=O)[O-])cc2)s1	inactive	
COc1cc(OC)c2ccc(=O)oc2c1C(CC(=O)N1CCCC1)c1ccc(N(C)C)cc1 (stereo unspecified)	inactive	
N#C/C(=N\Nc1cccc(C(F)(F)F)c1)C(=O)c1ccsc1	inactive	
COc1cc(/C=C/c2nc(-c3ccccc3O)n[nH]2)cc(OC)c1OC	inactive	
CN1CN(C)c2cccc3cccc1c23	inactive	
O=C1C(Br)=Cc2cccc3cccc1c23		3.06 µM
Cc1cccc(C(=O)NNC(=O)c2ccco2)c1O	inactive	
COc1ccc(/C(O)=C/c2nc3ccccc3n(-c3ccccc3)c2=O)cc1		3.25 µM
COc1ccc(-n2c(C)nc3cc(C(=O)O)ccc32)cc1	inactive	
COc1ccccc1NCc1cc(=O)oc2c(C)c(O)ccc12	inactive	
COc1ccccc1-c1cn[nH]c1-c1ccc(O)cc1O	inactive	
